Measurements reported in publication PMC11210122, “Synthesis, biological evaluation, and molecular docking of novel 1,3,4-substituted-thiadiazole derivatives as potential anticancer agent” (BMC Chemistry, 2024).
Where two headings read alike, the source gives them in different places.

Experiments:
[1] = tested on: human breast carcinoma cell line (MCF-7); test: MTT anti-proliferative assay, MCF-7; assay type: cell-based; settings: MCF7, MCF-7, MTT, mean ± SD of three independent experiments, read-out: Growth inhibition, GI50
Experimental: (§1) Methods for in vitro anti-proliferative assay [Cell lines]: In the current investigation, hepatocellular carcinoma cell lines (HEPG-2), human lung carcinoma (A549) and human breast carcinoma cell line (MCF-7) and pseudo-normal human embryonic liver cellline (L02) were used for antiproliferative activity, the cell lines were obtained from NCL, Pune. The growth medium used is the DMEM (Dulbecco's modified Eagle's growth medium) having 10% FBS (fetal bovine serum), 10 µg/ml of insulin (Sigma) and 1% penicillin/streptomycin. The used reagents and chemicals were purchased from Sigma or Invitrogen. 100 µl of each compound was added to cells with density of 1.2 – 1.8 × 10,000 cells/well containing 100 µl growth medium in a 96-well plate for 24 h previous to performing the MTT assay.
(§2) MTT assay: MTT (3-[4,5-dimethylthiazole-2-yl]-2,5-diphenyltetrazolium bromide) was used to determine the anti-proliferative activity. Cells were incubated in a moist environment for 24 hours at 37℃. The cells were then treated with various concentrations of the studied substances (0.01, 0.1, 1.0, 10, 50, 100 µM). The media was removed, and the cells were treated for 2 hours with a 5% MTT ([…]) solution/well, allowing the dye to metabolize to colored-insoluble formazan crystals. The remaining solution was discarded and acidified isopropanol was then added for around 30 minutes to dissolve the formazan crystals, which were encased in aluminum foil at room temperature. The absorbance of each well was measured at 450 nm using an Elisa reader. The cell viability was expressed as a percentage of control, and the GI50 was calculated using Graph Pad Prism program (Graph Pad software Inc, CA).

[2] = tested on: hepatocellular carcinoma cell lines (HEPG-2); test: MTT anti-proliferative assay, HepG-2; assay type: cell-based, human; settings: mean ± SD of three independent experiments, read-out: Growth inhibition, GI50
Experimental: as §1, §2

[3] = tested on: human lung carcinoma cell line (A549); test: MTT anti-proliferative assay, A549; assay type: cell-based; settings: mean ± SD of three independent experiments, read-out: Growth inhibition, GI50
Experimental: as §1, §2

[4] = tested on: pseudo-normal human embryonic liver cell line (L02); test: MTT assay, pseudo-normal L02 cells; assay type: cell-based; settings: L02, 100 µM, mean ± SD of three independent experiments
Experimental: as §1, §2

[5] = tested on: breast carcinoma cell line (MCF-7); test: Annexin V-FITC/PI assay (flow cytometry); assay type: cell-based, human; settings: 24 h
Experimental: The early stages of apoptosis were monitored by Annexin V-FITC (apoptotic cell marker) and PI (necrotic cell marker) double staining. The staining method was used according to the Annexin FITC/PI staining kit (Invitrogen™, Thermo Fisher Scientific Inc.). Annexin V- FITC/PI assay was performed to inspect the extent of programmed cell death (Fig. 3, apoptosis) by the compounds 4c, 4j and 8f on breast carcinoma cell line (MCF-7). The cells were treated with increasing concentrations (5–10 μM) for 24 h and analyzed by flow cytometry.
Annexin V-FITC/PI Assay: The early stages of apoptosis were monitored by Annexin V-FITC (apoptotic cell marker) and PI (necrotic cell marker) double staining. The staining method was used according to the Annexin FITC/PI staining kit (Invitrogen™, Thermo Fisher Scientific Inc.). Briefly, cells were washed in PBS twice and resuspended in 500 μl of PBS plus Annexin V-FITC and PI. For each sample at least 1×10^4 cells should be analysed using an FACS cytometer.

[6] = Homo sapiens, HepG2, HepG-2, MTT

Row | Compound | GI50 [1] [µM] | GI50 [2, 6] [µM] | GI50 ([3]; Homo sapiens, A549, A549, MTT) [µM] | inhibition at 100 µM [4] [%] | GI50 ([2]; HepG-2, MTT) [µM] | GI50 ([3]; A549, MTT) [µM] | Q3 live cells ([5]; MCF-7, 5 μM) [%] | Q3 live cells ([5]; MCF-7, 10 μM) [%] | Q2 late apoptotic cells ([5]; MCF-7, 5 μM) [%] | Q2 late apoptotic cells ([5]; MCF-7, 10 μM) [%] | Q1 necrotic cells ([5]; MCF-7, 5 μM) [%] | Q1 necrotic cells ([5]; MCF-7, 10 μM) [%]
1 | O=C(CCl)Nc1nc(-c2ccccc2)cs1 [4a] | 23.8 ± 0.24 | 12.9 ± 0.25 | 18.7 ± 0.41 | 21.6 ± 0.43 | – | – | – | – | – | – | – | –
2 | O=C(CCl)Nc1nc(-c2ccc(Br)cc2)cs1 [4b] | – | 3.92 | 3.86 | 17.8 ± 0.51 | 3.62 ± 0.14 | 2.97 ± 0.19 | – | – | – | – | – | –
3 | O=C(CCl)Nc1nc(-c2ccc(Cl)cc2)cs1 [4c] | 2.63 ± 0.14 | 3.92 ± 0.17 | 3.86 ± 0.22 | 18.4 ± 0.48 | – | – | 62.43 | 42.19 | – | – | – | –
4 | COc1ccc(-c2csc(NC(=O)CCl)n2)cc1 [4d] | 26.5 ± 0.32 | 8.37 ± 0.23 | 15.4 ± 0.23 | 12.8 ± 0.22 | – | – | – | – | – | – | – | –
5 | Cc1ccc(-c2csc(NC(=O)CCl)n2)cc1 [4e] | 31.8 ± 0.46 | 7.28 ± 0.16 | 13.7 ± 0.34 | 15.9 ± 0.24 | – | – | – | – | – | – | – | –
6 | O=C(CCl)Nc1nc(-c2ccc([N+](=O)[O-])cc2)cs1 [4f] | 29.4 ± 0.32 | 18.9 ± 0.29 | 19.2 ± 0.32 | 28.16 ± 0.27 | – | – | – | – | – | – | – | –
7 | O=C(CCl)Nc1nc(-c2ccc(F)cc2)cs1 [4g] | 36.7 ± 0.41 | 22.7 ± 0.46 | 17.5 ± 0.26 | 16.3 ± 0.21 | – | – | – | – | – | – | – | –
8 | O=C(CCl)Nc1nc(-c2cccc([N+](=O)[O-])c2)cs1 [4h] | 38.15 ± 0.27 | 25.81 ± 0.23 | 28.6 ± 0.47 | 18.4 ± 0.34 | – | – | – | – | – | – | – | –
9 | O=C(CCl)Nc1nc(-c2cccc(Br)c2)cs1 [4i] | 33.74 ± 0.32 | 16 ± 0.43 | 31.4 ± 0.36 | 17.6 ± 0.38 | – | – | – | – | – | – | – | –
10 | COc1cccc(-c2csc(NC(=O)CCl)n2)c1 [4j] | 1.82 ± 0.21 | 2.38 ± 0.24 | 2.61 ± 0.12 | 17.3 ± 0.23 | – | – | 42.81 | 32.80 | 34.84 | 40.33 | – | –
11 | O=C(CCl)Nc1nc(-c2cc3ccccc3oc2=O)cs1 [4k] | 26.4 ± 0.28 | 14.3 ± 0.28 | 25.3 ± 0.39 | 23 ± 0.35 | – | – | – | – | – | – | – | –
12 | CCOC(=O)c1sc(NC(=O)CCl)nc1C [4l] | 37.26 ± 0.37 | 29.8 ± 0.34 | 32.9 ± 0.46 | 26 ± 0.47 | – | – | – | – | – | – | – | –
13 | Nc1nnc(SCC(=O)Nc2nc(-c3ccccc3)cs2)s1 [8a, 2-(5-amino-1,3,4-thiadiazol-2-ylthio)-N-(4-phenylthiazol-2-yl) acetamide] | 34.87 ± 0.31 | 26.8 ± 0.28 | 36.2 ± 0.39 | 22.6 ± 0.42 | – | – | – | – | – | – | – | –
14 | Nc1nnc(SCC(=O)Nc2nc(-c3ccc(Br)cc3)cs2)s1 [8b, 2-(5-amino-1,3,4-thiadiazol-2-ylthio)-N-(4-(4-bromophenyl)thiazol-2-yl) acetamide] | 4.07 ± 0.19 | 5.86 ± 0.24 | 18.4 ± 0.46 | 15.8 ± 0.28 | – | – | – | – | – | – | – | –
15 | Nc1nnc(SCC(=O)Nc2nc(-c3ccc(Cl)cc3)cs2)s1 [8c, 2-(5-amino-1,3,4-thiadiazol-2-ylthio)-N-(4-(4-chlorophenyl)thiazol-2-yl) acetamide] | 20.7 ± 0.36 | 4.12 ± 0.18 | 7.86 ± 0.24 | 18.2 ± 0.22 | – | – | – | – | – | – | – | –
16 | COc1ccc(-c2csc(NC(=O)CSc3nnc(N)s3)n2)cc1 [8d, 2-(5-amino-1,3,4-thiadiazol-2-ylthio)-N-(4-(4-methoxyphenyl)thiazol-2-yl) acetamide] | 2.98 ± 0.15 | 2.53 ± 0.1 | 2.85 ± 0.18 | 21.8 ± 0.38 | – | – | – | – | – | – | – | –
17 | Cc1ccc(-c2csc(NC(=O)CSc3nnc(N)s3)n2)cc1 [8e, 2-(5-amino-1,3,4-thiadiazol-2-ylthio)-N-(4-p-tolylthiazol-2-yl) acetamide] | 28 ± 0.34 | 18.3 ± 0.34 | 29.8 ± 0.37 | 23.8 ± 0.42 | – | – | – | – | – | – | – | –
18 | Nc1nnc(SCC(=O)Nc2nc(-c3ccc([N+](=O)[O-])cc3)cs2)s1 [8f, 2-(5-amino-1,3,4-thiadiazol-2-ylthio)-N-(4-(4-nitrophenyl)thiazol-2-yl) acetamide] | 3.71 ± 0.26 | 3.46 ± 0.13 | 4.64 ± 0.23 | 20.6 ± 0.37 | – | – | 59.08 | 46.14 | 14.62 | 37.15 | 16.99 | 12.44
19 | COc1cccc2c1C(=O)c1c(O)c3c(c(O)c1C2=O)C[C@@](O)(C(=O)CO)C[C@@H]3O[C@H]1C[C@H](N)[C@H](O)[C@H](C)O1 [doxorubicin, reference compound] | 4.15 ± 0.18 | 3.87 ± 0.16 | 3.26 ± 0.24 | 82.2 ± 1.26 | – | – | – | – | – | – | – | –
